Source: patent US9670227B2, “Thienopyrimidine derivatives, a process for their preparation and pharmaceutical compositions containing them” (LES LABORATOIRES SERVIER, priority 2013, dated 2017)

Each molecule was assayed against Mcl-1 protein (UniProtKB primary accession number: Q07820) (Homo sapiens, UniProt Q07820) (assay: Inhibition of Mcl-1 by fluorescence polarisation, Method 1). Details: fluorescence polarisation test; Method 1, or Method 2 where the value is underlined (underlining not visible); read-out: IC50 (M) Mcl-1 FP.
Format: binding
Summary of the method: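 Binding was measured as fluorescence polarisation of a fluorescein-labelled ligand (1 nM) displaced from Mcl-1 (5 nM), both final. Compounds ran as 11-point series with final DMSO at 5%.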

Sequence of Mcl-1 protein (Q07820 whole entry): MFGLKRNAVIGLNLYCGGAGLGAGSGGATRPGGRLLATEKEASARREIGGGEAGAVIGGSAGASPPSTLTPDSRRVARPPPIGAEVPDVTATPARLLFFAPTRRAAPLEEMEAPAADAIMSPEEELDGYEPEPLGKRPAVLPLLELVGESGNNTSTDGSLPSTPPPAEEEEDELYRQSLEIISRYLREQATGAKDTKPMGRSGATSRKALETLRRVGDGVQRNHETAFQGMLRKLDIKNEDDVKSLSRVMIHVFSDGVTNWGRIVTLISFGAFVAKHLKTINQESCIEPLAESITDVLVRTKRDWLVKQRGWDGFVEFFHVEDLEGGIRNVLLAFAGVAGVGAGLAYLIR

SMILES | IC50 [M]
Cc1c(-c2c(-c3ccc(F)cc3)sc3ncnc(OC(Cc4ccccc4OCc4ccnc(-c5ccccc5F)n4)C(=O)OCC(=O)N(C)C)c23)ccc(OCCN(C)C)c1Cl [Example 818, 2-(dimethylamino)-2-oxoethyl (2R)-2-{[(5Sa)-5-{3-chloro-4-[2-(dimethylamino)ethoxy]-2-methylphenyl}-6-(4-fluorophenyl)thieno[2,3-d]pyrimidin-4-yl]oxy}-3-(2-{[2-(2-fluorophenyl)pyrimidin-4-yl]methoxy}phenyl)propanoate] | 1.12e-06
COCCOc1ccccc1-c1nccc(COc2ccccc2CC(Oc2ncnc3sc(-c4ccc(F)cc4)c(-c4ccc(OCCN(C)C)c(Cl)c4C)c23)C(=O)OCC(=O)N(C)C)n1 [Example 819, 2-(dimethylamino)-2-oxoethyl (2R)-2-{[(5Sa)-5-{3-chloro-4-[2-(dimethylamino)ethoxy]-2-methylphenyl}-6-(4-fluorophenyl)thieno[2,3-d]pyrimidin-4-yl]oxy}-3-[2-({2-[2-(2-methoxyethoxy)phenyl]pyrimidin-4-yl}methoxy)phenyl]propanoate] | 1.57e-07
Cc1oc(=O)oc1COC(=O)C(Cc1ccccc1OCc1ccnn1C(C)(C)C)Oc1ncnc2sc(-c3ccc(F)cc3)c(-c3ccc(OCCN(C)C)c(Cl)c3C)c12 [Example 820, (5-methyl-2-oxo-1,3-dioxol-4-yl)methyl (2R)-3-{2-[(1-tert-butyl-1H-pyrazol-5-yl)methoxy]phenyl}-2-{[(5Sa)-5-{3-chloro-4-[2-(dimethylamino)ethoxy]-2-methylphenyl}-6-(4-fluorophenyl)thieno[2,3-d]pyrimidin-4-yl]oxy}propanoate] | 1.29e-08
Cc1c(-c2c(-c3ccc(F)cc3)sc3ncnc(OC(Cc4ccccc4OCc4ccnn4C(C)(C)C)C(=O)OCOC(=O)C(C)(C)C)c23)ccc(OCCN(C)C)c1Cl [Example 821, {[(2R)-3-{2-[(1-tert-butyl-1H-pyrazol-5-yl)methoxy]phenyl}-2-{[(5Sa)-5-{3-chloro-4-[2-(dimethylamino)ethoxy]-2-methylphenyl}-6-(4-fluorophenyl)thieno[2,3-d]pyrimidin-4-yl]oxy}propanoyl]oxy}methyl 2,2-dimethylpropanoate] | 3.61e-07
CCN(C)CCOc1ccc(-c2c(-c3ccc(F)cc3)sc3ncnc(OC(Cc4ccccc4OCc4ccnc(-c5ccccc5F)n4)C(=O)OCC(=O)N(C)C)c23)c(C)c1Cl [Example 822, 2-(dimethylamino)-2-oxoethyl (2R)-2-{[(5Sa)-5-(3-chloro-4-{2-[ethyl(methyl)amino]ethoxy}-2-methylphenyl)-6-(4-fluorophenyl)thieno[2,3-d]pyrimidin-4-yl]oxy}-3-(2-{[2-(2-fluorophenyl)pyrimidin-4-yl]methoxy}phenyl)propanoate] | 2.4e-06
CCN(C)CCOc1ccc(-c2c(-c3ccc(F)cc3)sc3ncnc(OC(Cc4ccccc4OCc4ccnc(-c5ccccc5F)n4)C(=O)OCc4oc(=O)oc4C)c23)c(C)c1Cl [Example 823, (5-methyl-2-oxo-1,3-dioxol-4-yl)methyl (2R)-2-{[(5Sa)-5-(3-chloro-4-{2-[ethyl(methyl)amino]ethoxy}-2-methylphenyl)-6-(4-fluorophenyl)thieno[2,3-d]pyrimidin-4-yl]oxy}-3-(2-{[2-(2-fluorophenyl)pyrimidin-4-yl]methoxy}phenyl)propanoate] | 1.98e-08
Cc1oc(=O)oc1COC(=O)C(Cc1ccccc1OCc1ccnn1C(C)(C)C)Oc1ncnc2sc(-c3cccc(F)c3F)c(-c3ccc(OCCN(C)C)c(Cl)c3C)c12 [Example 824, (5-methyl-2-oxo-1,3-dioxol-4-yl)methyl (2R)-3-{2-[(1-tert-butyl-1H-pyrazol-5-yl)methoxy]phenyl}-2-{[(5Sa)-5-{3-chloro-4-[2-(dimethylamino)ethoxy]-2-methylphenyl}-6-(2,3-difluorophenyl)thieno[2,3-d]pyrimidin-4-yl]oxy}propanoate] | 3.82e-08
Cc1c(-c2c(-c3cccc(F)c3F)sc3ncnc(OC(Cc4ccccc4OCc4ccnn4C(C)(C)C)C(=O)OCC(=O)N(C)C)c23)ccc(OCCN(C)C)c1Cl [Example 825, 2-(dimethylamino)-2-oxoethyl (2R)-3-{2-[(1-tert-butyl-1H-pyrazol-5-yl)methoxy]phenyl}-2-{[(5Sa)-5-{3-chloro-4-[2-(dimethylamino)ethoxy]-2-methylphenyl}-6-(2,3-difluorophenyl)thieno[2,3-d]pyrimidin-4-yl]oxy}propanoate] | 5.82e-07
COc1ccccc1-c1nccc(COc2ccccc2CC(Oc2ncnc3sc(-c4ccc(F)cc4)c(-c4ccc(OCCN5CC6(CN(C)C6)C5)c(Cl)c4C)c23)C(=O)O)n1 [Example 833, (2R)-2-{[(5Sa)-5-{3-chloro-2-methyl-4-[2-(6-methyl-2,6-diazaspiro[3.3]hept-2-yl)ethoxy]phenyl}-6-(4-fluorophenyl)thieno[2,3-d]pyrimidin-4-yl]oxy}-3-(2-{[2-(2-methoxyphenyl)pyrimidin-4-yl]methoxy}phenyl)propanoic acid] | 3.35e-09
[2H]C([2H])([2H])Oc1ccccc1-c1nccc(COc2ccccc2CC(Oc2ncnc3sc(-c4ccc(F)cc4)c(-c4ccc(OCCN5CCN(C)CC5)c(Cl)c4C)c23)C(=O)OCC)n1 [Example 839, ethyl (2R)-2-{[(5Sa)-5-{3-chloro-2-methyl-4-[2-(4-methylpiperazin-1-yl)ethoxy]phenyl}-6-(4-fluorophenyl)thieno[2,3-d]pyrimidin-4-yl]oxy}-3-{2-[(2-{2-[(^2H3)methyloxy]phenyl}pyrimidin-4-yl)methoxy]phenyl}propanoate] | 6.91e-07
COc1ccccc1CC(Oc1ncnc2sc(-c3ccc(F)cc3)c(-c3ccc(OC)c(Cl)c3C)c12)C(=O)O [Example 840, (2R)-2-{[(5Sa)-5-(3-chloro-4-methoxy-2-methylphenyl)-6-(4-fluorophenyl)thieno[2,3-d]pyrimidin-4-yl]oxy}-3-(2-methoxyphenyl)propanoic acid] | 1.28e-07
COc1ccccc1-c1nccc(COc2ccccc2CC(Oc2ncnc3sc(-c4ccc(F)cc4)c(-c4ccc(OC)c(Cl)c4C)c23)C(=O)O)n1 [Example 841, (2R)-2-{[(5Sa)-5-(3-chloro-4-methoxy-2-methylphenyl)-6-(4-fluorophenyl)thieno[2,3-d]pyrimidin-4-yl]oxy}-3-(2-{[2-(2-methoxyphenyl)pyrimidin-4-yl]methoxy}phenyl)propanoic acid] | 4.8e-09
COc1ccccc1CC(Oc1ncnc2sc(-c3ccc(F)cc3)c(-c3ccc(OCCN4CCN(C)CC4)c(Cl)c3C)c12)C(=O)OCC(=O)N(C)C [Example 844, 2-(dimethylamino)-2-oxoethyl (2R)-2-{[(5Sa)-5-{3-chloro-2-methyl-4-[2-(4-methylpiperazin-1-yl)ethoxy]phenyl}-6-(4-fluorophenyl)thieno[2,3-d]pyrimidin-4-yl]oxy}-3-(2-methoxyphenyl)propanoate] | 1.67e-06

Same assay, conditions: test compound at 10 uM; Method 1, or Method 2 where the value is underlined (underlining not visible)

SMILES | percentage fluorescence polarisation inhibition (Mcl-1 FP), partial inhibitors [% @ 10 uM]
CCOC(=O)[C@@H](Cc1ccccc1OCc1ccnc(-c2ccccc2OC)n1)Oc1ncnc2sc(-c3ccc(F)cc3)c(-c3ccc(OCCN4CCN(C)CC4)c(Cl)c3C)c12 [Example 830, ethyl (2R)-2-{[(5Ra)-5-{3-chloro-2-methyl-4-[2-(4-methylpiperazin-1-yl)ethoxy]phenyl}-6-(4-fluorophenyl)thieno[2,3-d]pyrimidin-4-yl]oxy}-3-(2-{[2-(2-methoxyphenyl)pyrimidin-4-yl]methoxy}phenyl)propanoate] | −11.9
CCOC(=O)[C@@H](Cc1ccccc1OC)Oc1ncnc2sc(-c3ccc(F)cc3)c(-c3ccc(OC)c(Cl)c3C)c12 [Example 842, ethyl (2R)-2-{[(5Sa)-5-(3-chloro-4-methoxy-2-methylphenyl)-6-(4-fluorophenyl)thieno[2,3-d]pyrimidin-4-yl]oxy}-3-(2-methoxyphenyl)propanoate] | 7.65
CCOC(=O)[C@@H](Cc1ccccc1OCc1ccnc(-c2ccccc2OC)n1)Oc1ncnc2sc(-c3ccc(F)cc3)c(-c3ccc(OC)c(Cl)c3C)c12 [Example 843, ethyl (2R)-2-{[(5Sa)-5-(3-chloro-4-methoxy-2-methylphenyl)-6-(4-fluorophenyl)thieno[2,3-d]pyrimidin-4-yl]oxy}-3-(2-{[2-(2-methoxyphenyl)pyrimidin-4-yl]methoxy}phenyl)propanoate] | 23.05
COc1ccccc1C[C@@H](Oc1ncnc2sc(-c3ccc(F)cc3)c(-c3ccc(OC)c(Cl)c3C)c12)C(=O)OCC(=O)N(C)C [Example 845, 2-(dimethylamino)-2-oxoethyl (2R)-2-{[(5Sa)-5-(3-chloro-4-methoxy-2-methylphenyl)-6-(4-fluorophenyl)thieno[2,3-d]pyrimidin-4-yl]oxy}-3-(2-methoxyphenyl)propanoate] | 7.85
COc1ccccc1C[C@@H](Oc1ncnc2sc(-c3ccc(F)cc3)c(-c3ccc(OC)c(Cl)c3C)c12)C(=O)OCOC(=O)C(C)(C)C [Example 846, {[(2R)-2-{[(5Sa)-5-(3-chloro-4-methoxy-2-methylphenyl)-6-(4-fluorophenyl)thieno[2,3-d]pyrimidin-4-yl]oxy}-3-(2-methoxyphenyl)propanoyl]oxy}methyl 2,2-dimethylpropanoate] | 25.1
CCCCCCCCOC(=O)[C@@H](Cc1ccccc1OCc1ccnc(-c2ccccc2OC)n1)Oc1ncnc2sc(-c3ccc(F)cc3)c(-c3ccc(OC)c(Cl)c3C)c12 [Example 847, octyl (2R)-2-{[(5Sa)-5-(3-chloro-4-methoxy-2-methylphenyl)-6-(4-fluorophenyl)thieno[2,3-d]pyrimidin-4-yl]oxy}-3-(2-{[2-(2-methoxyphenyl)pyrimidin-4-yl]methoxy}phenyl)propanoate] | 3.55
